In ChEMBL document CHEMBL3351627, “Design and synthesis of 3-isoxazolidone derivatives as new Chlamydia trachomatis inhibitors” (Bioorg Med Chem Lett, 2014):
Blank lines part the entries; values can stand above or below the compound they belong to. Calls of active or inactive are those of the source. No cut-off for these calls is given here.

Columns and labels:
HeLa = assay: Cytotoxicity against human HeLa cells at 5 to 200 uM after 24 to 48 hrs by trypan blue exclusion assay; assay type: cell-based
[1] = Cytotoxicity against mouse fibroblasts at 5 to 200 uM after 24 to 48 hrs by trypan blue exclusion assay; assay type: cell-based; conditions: fibroblast
Chlamydia trachomatis [2] = assay: Bactericidal activity against Chlamydia trachomatis serovar L2 infected in human HeLa cells assessed as growth inhibition compound treated at 5 to 200 uM for 1 hr prior infection measured 24 hrs post infection by microscopy; assay type: functional, organism-based
Chlamydia trachomatis [3] = assay: Bactericidal activity against Chlamydia trachomatis serovar L2 infected in human HeLa cells assessed as growth inhibition compound treated for 1 hr prior infection measured 24 hrs post infection by microscopy; assay type: functional, organism-based
Chlamydia trachomatis [4] = assay: Bactericidal activity against Chlamydia trachomatis serovar L2 infected in human HeLa cells assessed as growth inhibition compound treated at 50 to 200 uM for 1 hr prior infection measured 24 hrs post infection by microscopy; assay type: functional, organism-based
[5] = Iron chelating activity of the compound at pH 7.4 by UV-visible spectrophotometric titration; assay type: physicochemical
Chlamydia trachomatis [6] = assay: Bactericidal activity against Chlamydia trachomatis serovar L2 infected in human HeLa cells assessed as reduction in inclusion forming unit compound treated at 5 to 25 uM for 1 hr prior infection measured 24 hrs post infection by immunofluorescence assay in presence of 200 uM iron citrate; assay type: functional, organism-based
Chlamydia trachomatis [7] = assay: Bactericidal activity against Chlamydia trachomatis serovar L2 infected in human HeLa cells assessed as growth inhibition compound treated at 200 uM for 1 hr prior infection measured 24 hrs post infection by microscopy; assay type: functional, organism-based
Chlamydia trachomatis [8] = assay: Bactericidal activity against Chlamydia trachomatis serovar L2 infected in human HeLa cells assessed as growth inhibition compound treated at 100 to 200 uM for 1 hr prior infection measured 24 hrs post infection by microscopy in presence of 200 uM iron citrate; assay type: functional, organism-based
Chlamydia trachomatis [9] = assay: Bacteriostatic activity against Chlamydia trachomatis serovar L2 infected in human HeLa cells assessed as growth inhibition compound treated at >100 uM for 1 hr prior infection measured 24 hrs post infection by microscopy in presence of 200 uM iron citrate; assay type: functional, organism-based
Chlamydia trachomatis [10] = assay: Bacteriostatic activity against Chlamydia trachomatis serovar L2 infected in human HeLa cells assessed as growth inhibition compound treated at >100 uM for 1 hr prior infection measured 24 hrs post infection by microscopy; assay type: functional, organism-based

SMILES: COc1cccc(C(=O)N[C@@H]2CON(CCc3c[nH]cn3)C2=O)c1OC
Activity (HeLa): Non-toxic | Activity [1]: Non-toxic | growth inhibition (GI) (Chlamydia trachomatis [2]): inactive | growth inhibition (GI) (Chlamydia trachomatis [3]): Dose-dependent effect

Activity [5]: Active
SMILES: O=C(N[C@@H]1CON(CCCCOC(=O)c2cccc(O)c2O)C1=O)c1cccc(O)c1O
Activity (HeLa): Non-toxic | Activity [1]: Non-toxic | growth inhibition (GI) (Chlamydia trachomatis [3]): Dose-dependent effect | growth inhibition (GI) (Chlamydia trachomatis [4]): Active

Activity [5]: Active
SMILES: O=C(NCCN1OC[C@@H](NC(=O)c2cccc(O)c2O)C1=O)c1cccc(O)c1O
Activity (HeLa): Non-toxic | Activity [1]: Non-toxic | growth inhibition (GI) (Chlamydia trachomatis [3]): Dose-dependent effect | Activity (Chlamydia trachomatis [6]): Active | growth inhibition (GI) (Chlamydia trachomatis [4]): Active

Activity [5]: Not Active
SMILES: O=C(NCCN1OC[C@@H](NC(=O)c2ccc3ccccc3n2)C1=O)c1ccc2ccccc2n1
Activity (HeLa): Non-toxic | Activity [1]: Non-toxic | growth inhibition (GI) (Chlamydia trachomatis [2]): inactive | growth inhibition (GI) (Chlamydia trachomatis [3]): Dose-dependent effect | Activity (Chlamydia trachomatis [6]): Active

Activity [5]: Active
SMILES: O=C(N[C@@H]1CON(CCOC(=O)c2cccc(O)c2O)C1=O)c1cccc(O)c1O
Activity (HeLa): Non-toxic | Activity [1]: Non-toxic | growth inhibition (GI) (Chlamydia trachomatis [3]): Dose-dependent effect | growth inhibition (GI) (Chlamydia trachomatis [7]): Active

Activity [5]: Active
SMILES: O=C(NCCOC1=NOC[C@H]1NC(=O)c1cccc(O)c1O)c1cccc(O)c1O
Activity (HeLa): Non-toxic | Activity [1]: Non-toxic | growth inhibition (GI) (Chlamydia trachomatis [7]): Active | Activity (Chlamydia trachomatis [6]): Active

SMILES: O=C(N[C@@H]1CON(CCc2c[nH]cn2)C1=O)c1cccc(O)c1O
Activity (HeLa): Non-toxic | Activity [1]: Non-toxic | growth inhibition (GI) (Chlamydia trachomatis [2]): Active | growth inhibition (GI) (Chlamydia trachomatis [3]): Dose-dependent effect

Activity [5]: Not Active
SMILES: O=C(NCCN1OC[C@@H](NC(=O)c2ccc3cccc(O)c3n2)C1=O)c1ccc2cccc(O)c2n1
Activity (HeLa): Non-toxic | Activity [1]: Non-toxic | growth inhibition (GI) (Chlamydia trachomatis [2]): Active | growth inhibition (GI) (Chlamydia trachomatis [3]): Dose-dependent effect | growth inhibition (GI) (Chlamydia trachomatis [8]): Active | Activity (Chlamydia trachomatis [6]): Active

SMILES: N[C@@H]1CONC1=O
Activity (Chlamydia trachomatis [6]): Active

SMILES: CC(=O)N(O)CCCCCNC(=O)CCC(=O)N(O)CCCCCNC(=O)CCC(=O)N(O)CCCCCN
growth inhibition (GI) (Chlamydia trachomatis [9]): inactive | growth inhibition (GI) (Chlamydia trachomatis [10]): Active
